Laboratory results reported in article PMC5218480 (PLoS ONE, 2017).

Tested on: MV-4-11 cells
Test: Gene expression microarray analysis (Affymetrix PrimeView) and GSEA
Format: cell-based, human
Parameters: RFU PODN (11730768_x_at) / Fold change /veh PODN (11730768_x_at) / RFU LINC00158 (11744669_a_at) / Fold change /veh LINC00158 (11744669_a_at) / RFU DUSP10 (11751237_a_at) / Fold change /veh DUSP10 (11751237_a_at) / RFU ID3 (11757404_x_at) / Fold change /veh ID3 (11757404_x_at) / RFU PLEKHG5 (11737974_s_at) / Fold change /veh PLEKHG5 (11737974_s_at) / RFU LRRC4B (11730491_at) / Fold change /veh LRRC4B (11730491_at) / RFU GIMAP4 (11747438_a_at) / Fold change /veh GIMAP4 (11747438_a_at) / RFU KRT8 (11758183_x_at) / Fold change /veh KRT8 (11758183_x_at) / RFU CNN1 (11734310_a_at) / Fold change /veh CNN1 (11734310_a_at) / RFU VPS37D (11726825_at) / Fold change /veh VPS37D (11726825_at) / RFU C10orf10 (11716522_x_at) / Fold change /veh C10orf10 (11716522_x_at) / RFU KIR2DL2 /// KIR2DL4 /// KIR2DL5A /// KIR2DL5B /// KIR2DS1 /// KIR2DS2 /// KIR2DS3 /// KIR2DS4 /// KIR3DL3 /// KIR3DL3 /// KIR3DS1 (11738374_at) / Fold change /veh KIR2DL2 /// KIR2DL4 /// KIR2DL5A /// KIR2DL5B /// KIR2DS1 /// KIR2DS2 /// KIR2DS3 /// KIR2DS4 /// KIR3DL3 /// KIR3DL3 /// KIR3DS1 (11738374_at) / RFU C1QL1 (11718748_at) / Fold change /veh C1QL1 (11718748_at) / RFU TMPRSS4 (11747572_a_at) / Fold change /veh TMPRSS4 (11747572_a_at) / RFU HAMP (11756126_x_at) / Fold change /veh HAMP (11756126_x_at) / RFU RNFT2 (11725882_a_at) / Fold change /veh RNFT2 (11725882_a_at) / RFU NR4A2 (11747474_a_at) / Fold change /veh NR4A2 (11747474_a_at) / RFU ABCC12 (11746883_a_at) / Fold change /veh ABCC12 (11746883_a_at) / RFU TMEM136 (11760407_x_at) / Fold change /veh TMEM136 (11760407_x_at) / RFU CLDN22 /// WWC2 (11732394_at) / Fold change /veh CLDN22 /// WWC2 (11732394_at) / RFU HLA-DPB1 (11760878_x_at) / Fold change /veh HLA-DPB1 (11760878_x_at) / RFU SPINT1 (11716480_a_at) / Fold change /veh SPINT1 (11716480_a_at) / RFU GAP43 (11754022_s_at) / Fold change /veh GAP43 (11754022_s_at) / RFU A4GNT (11735810_at) / Fold change /veh A4GNT (11735810_at) / RFU PRB3 (11715151_x_at) / Fold change /veh PRB3 (11715151_x_at) / RFU TUBB4B (11761932_at) / Fold change /veh TUBB4B (11761932_at) / RFU CAPN14 (11732068_a_at) / Fold change /veh CAPN14 (11732068_a_at) / RFU TMCC2 (11721928_a_at) / Fold change /veh TMCC2 (11721928_a_at) / RFU IRGQ (11745062_a_at) / Fold change /veh IRGQ (11745062_a_at) / RFU FAM174B (11720279_a_at) / Fold change /veh FAM174B (11720279_a_at) / RFU TMPRSS4 (11748680_a_at) / Fold change /veh TMPRSS4 (11748680_a_at) / RFU FAM212B (11763350_a_at) / Fold change /veh FAM212B (11763350_a_at) / RFU PLEKHG5 (11743358_a_at) / Fold change /veh PLEKHG5 (11743358_a_at) / RFU ZSCAN30 (11745921_a_at) / Fold change /veh ZSCAN30 (11745921_a_at) / RFU CMKLR1 (11741424_a_at) / Fold change /veh CMKLR1 (11741424_a_at) / RFU LOC101060620 /// MAPK8IP1 (11723275_at) / Fold change /veh LOC101060620 /// MAPK8IP1 (11723275_at) / RFU SPTSSB (11747773_x_at) / Fold change /veh SPTSSB (11747773_x_at) / RFU PRSS12 (11739890_at) / Fold change /veh PRSS12 (11739890_at) / RFU BIN1 (11741810_x_at) / Fold change /veh BIN1 (11741810_x_at) / RFU WNT11 (11732464_a_at) / Fold change /veh WNT11 (11732464_a_at) / RFU C10orf10 (11716521_a_at) / Fold change /veh C10orf10 (11716521_a_at) / RFU C5orf56 (11738089_at) / Fold change /veh C5orf56 (11738089_at) / RFU CYB561 (11721691_x_at) / Fold change /veh CYB561 (11721691_x_at) / RFU ANKRD19P (11752326_a_at) / Fold change /veh ANKRD19P (11752326_a_at) / RFU OR2T12 /// OR2T33 /// OR2T8 (11738714_s_at) / Fold change /veh OR2T12 /// OR2T33 /// OR2T8 (11738714_s_at) / RFU VCAN (11748164_a_at) / Fold change /veh VCAN (11748164_a_at) / RFU JSRP1 (11732532_at) / Fold change /veh JSRP1 (11732532_at) / RFU KRTAP10-11 (11738290_x_at) / Fold change /veh KRTAP10-11 (11738290_x_at) / RFU MYO3A (11730013_a_at) / Fold change /veh MYO3A (11730013_a_at) / RFU EBF3 (11725865_a_at) / Fold change /veh EBF3 (11725865_a_at) / RFU CAMK2N1 (11719241_x_at) / Fold change /veh CAMK2N1 (11719241_x_at) / RFU C5orf56 (11738088_a_at) / Fold change /veh C5orf56 (11738088_a_at) / RFU OLFML3 (11715873_a_at) / Fold change /veh OLFML3 (11715873_a_at) / RFU LOC100653217 /// NTM (11731650_a_at) / Fold change /veh LOC100653217 /// NTM (11731650_a_at) / RFU MAPK11 (11762145_a_at) / Fold change /veh MAPK11 (11762145_a_at) / RFU FIZ1 (11724087_x_at) / Fold change /veh FIZ1 (11724087_x_at) / RFU OASL (11726364_x_at) / Fold change /veh OASL (11726364_x_at) / RFU SOX15 (11748057_x_at) / Fold change /veh SOX15 (11748057_x_at) / RFU CD79A (11719716_a_at) / Fold change /veh CD79A (11719716_a_at) / RFU HIST1H1D (11736915_at) / Fold change /veh HIST1H1D (11736915_at) / RFU CASKIN2 (11723855_a_at) / Fold change /veh CASKIN2 (11723855_a_at) / RFU LOC730098 (11760151_x_at) / Fold change /veh LOC730098 (11760151_x_at) / RFU OR4N2 (11742367_at) / Fold change /veh OR4N2 (11742367_at) / RFU PRRT2 (11749266_a_at) / Fold change /veh PRRT2 (11749266_a_at) / RFU SNX32 (11753110_a_at) / Fold change /veh SNX32 (11753110_a_at) / RFU CDHR5 (11726645_a_at) / Fold change /veh CDHR5 (11726645_a_at) / RFU RCAN1 (11760418_a_at) / Fold change /veh RCAN1 (11760418_a_at) / RFU FAM167A (11723789_a_at) / Fold change /veh FAM167A (11723789_a_at) / RFU FAM26E (11764081_at) / Fold change /veh FAM26E (11764081_at) / RFU ISYNA1 (11749810_s_at) / Fold change /veh ISYNA1 (11749810_s_at) / RFU ACY1 (11761880_at) / Fold change /veh ACY1 (11761880_at) / RFU 11764098_at / Fold change /veh 11764098_at / RFU SAMD14 (11745864_x_at) / Fold change /veh SAMD14 (11745864_x_at) / RFU NPB (11741838_a_at) / Fold change /veh NPB (11741838_a_at) / RFU TMPRSS6 (11731388_a_at) / Fold change /veh TMPRSS6 (11731388_a_at) / RFU KRTAP10-2 (11738614_at) / Fold change /veh KRTAP10-2 (11738614_at) / RFU ARHGAP8 /// PRR5-ARHGAP8 (11727945_x_at) / Fold change /veh ARHGAP8 /// PRR5-ARHGAP8 (11727945_x_at) / RFU KRTAP5-7 /// NADSYN1 (11734609_at) / Fold change /veh KRTAP5-7 /// NADSYN1 (11734609_at) / RFU RASL12 (11751679_a_at) / Fold change /veh RASL12 (11751679_a_at) / RFU CDKN2B (11736163_a_at) / Fold change /veh CDKN2B (11736163_a_at) / RFU PRF1 (11729649_at) / Fold change /veh PRF1 (11729649_at) / RFU, ZNF638 /// ZNF638-IT1 / Fold change vs veh, ZNF638 /// ZNF638-IT1 / RFU, PANK3 / Fold change vs veh, PANK3 / RFU, SH3YL1 / Fold change vs veh, SH3YL1 / RFU, ZEB2 / Fold change vs veh, ZEB2 / RFU, NRIP1 / Fold change vs veh, NRIP1 / RFU, PTTG1IP / Fold change vs veh, PTTG1IP / RFU, CAPN2 / Fold change vs veh, CAPN2 / RFU, MED14 / Fold change vs veh, MED14 / RFU, SNORA58 / Fold change vs veh, SNORA58 / RFU, C1orf63 / Fold change vs veh, C1orf63 / RFU, LRRFIP1 / Fold change vs veh, LRRFIP1 / RFU, NDUFAF7 / Fold change vs veh, NDUFAF7 / RFU, SLC12A2 / Fold change vs veh, SLC12A2 / RFU, IBTK / Fold change vs veh, IBTK / RFU, ESF1 / Fold change vs veh, ESF1 / Fold change vs veh, TMEM50B / RFU, TAOK1 / Fold change vs veh, TAOK1 / RFU, ACBD3 / Fold change vs veh, ACBD3 / RFU, TMA16 / Fold change vs veh, TMA16 / RFU, RWDD3 / Fold change vs veh, RWDD3 / RFU, BCAT1 / Fold change vs veh, BCAT1 / RFU, EDEM3 / Fold change vs veh, EDEM3 / RFU, TMEM33 / Fold change vs veh, TMEM33 / RFU, WDR75 / Fold change vs veh, WDR75 / RFU, AHCTF1 / Fold change vs veh, AHCTF1 / RFU, TFRC / Fold change vs veh, TFRC / RFU, ZDHHC17 / Fold change vs veh, ZDHHC17 / RFU, NOM1 / Fold change vs veh, NOM1 / RFU, ARL8B / Fold change vs veh, ARL8B / RFU, ZBTB11 / Fold change vs veh, ZBTB11 / RFU, TAMM41 / Fold change vs veh, TAMM41 / RFU, KIAA1704 /// LOC100996395 / Fold change vs veh, KIAA1704 /// LOC100996395 / RFU, ING1 / Fold change vs veh, ING1 / RFU, TRMT61B / Fold change vs veh, TRMT61B / RFU, FUBP3 / Fold change vs veh, FUBP3 / RFU, TP53 / Fold change vs veh, TP53 / RFU, TNKS2 / Fold change vs veh, TNKS2 / RFU, ZFP14 / Fold change vs veh, ZFP14 / RFU, ACTR2 / Fold change vs veh, ACTR2 / RFU, PPP3R1 / Fold change vs veh, PPP3R1 / RFU, PIK3R1 / Fold change vs veh, PIK3R1 / RFU, HNRNPA1 / Fold change vs veh, HNRNPA1 / RFU, RNF170 / Fold change vs veh, RNF170 / RFU, ZNF28 / Fold change vs veh, ZNF28 / RFU, RNGTT / Fold change vs veh, RNGTT / RFU, OGT / Fold change vs veh, OGT / RFU, BRD1 / Fold change vs veh, BRD1 / RFU, MARS / Fold change vs veh, MARS / RFU, ZNF655 / Fold change vs veh, ZNF655 / RFU, FAHD1 / Fold change vs veh, FAHD1 / RFU, BDP1 / Fold change vs veh, BDP1 / RFU, LRRCC1 / Fold change vs veh, LRRCC1 / RFU, ARID1A / Fold change vs veh, ARID1A / RFU, ZNF146 / Fold change vs veh, ZNF146 / RFU, ZNF330 / Fold change vs veh, ZNF330 / RFU, GPN3 / Fold change vs veh, GPN3 / RFU, C9orf123 / Fold change vs veh, C9orf123 / RFU, N4BP2L2 / Fold change vs veh, N4BP2L2 / RFU, ARFIP1 / Fold change vs veh, ARFIP1 / RFU, FAM179B / Fold change vs veh, FAM179B / RFU, BCL10 / Fold change vs veh, BCL10 / RFU, UHRF1BP1L / Fold change vs veh, UHRF1BP1L / RFU, BET1 / Fold change vs veh, BET1 / RFU, CNOT2 / Fold change vs veh, CNOT2 / RFU, ZNF268 / Fold change vs veh, ZNF268 / Fold change vs veh, ZNF507 / RFU, DGCR2 / Fold change vs veh, DGCR2 / RFU, WDSUB1 / Fold change vs veh, WDSUB1 / Fold change vs veh, HSP90B1 /// MIR3652 / RFU, ADSS / Fold change vs veh, ADSS / RFU, GK / Fold change vs veh, GK / RFU, ZNF148 / Fold change vs veh, ZNF148 / RFU, TAF9 / Fold change vs veh, TAF9 / RFU, SLC1A5 / Fold change vs veh, SLC1A5 / RFU, SLMO2 / Fold change vs veh, SLMO2 / RFU, ABCC4 / Fold change vs veh, ABCC4 / RFU, LOC101060439 /// RAP1B / Fold change vs veh, LOC101060439 /// RAP1B / RFU, RFX7 / Fold change vs veh, RFX7 / RFU, GTPBP10 / Fold change vs veh, GTPBP10 / RFU, CNEP1R1 / Fold change vs veh, CNEP1R1 / RFU, BIVM-ERCC5 /// ERCC5 / Fold change vs veh, BIVM-ERCC5 /// ERCC5 / RFU, ILF3 / Fold change vs veh, ILF3 / RFU 11762660_at / Fold change /veh 11762660_at / RFU VCAN (11757783_s_at) / Fold change /veh VCAN (11757783_s_at) / RFU DDX43 (11728927_at) / Fold change /veh DDX43 (11728927_at) / RFU KRT8 (11758188_x_at) / Fold change /veh KRT8 (11758188_x_at) / RFU NKD1 (11759106_at) / Fold change /veh NKD1 (11759106_at) / RFU SRD5A1 (11742802_a_at) / Fold change /veh SRD5A1 (11742802_a_at) / RFU TPSAB1 /// TPSB2 (11721975_s_at) / Fold change /veh TPSAB1 /// TPSB2 (11721975_s_at) / RFU GSTM3 (11746129_a_at) / Fold change /veh GSTM3 (11746129_a_at) / RFU IL23R (11737362_x_at) / Fold change /veh IL23R (11737362_x_at) / RFU TMEM51 (11727254_a_at) / Fold change /veh TMEM51 (11727254_a_at) / RFU PIWIL2 (11732686_x_at) / Fold change /veh PIWIL2 (11732686_x_at) / RFU ORM1 (11744905_x_at) / Fold change /veh ORM1 (11744905_x_at) / RFU CCDC152 (11743942_at) / Fold change /veh CCDC152 (11743942_at) / RFU ECM1 (11717891_a_at) / Fold change /veh ECM1 (11717891_a_at) / RFU IL23R (11748794_a_at) / Fold change /veh IL23R (11748794_a_at) / RFU TNFAIP8L3 (11732012_x_at) / Fold change /veh TNFAIP8L3 (11732012_x_at) / RFU MBOAT4 (11741988_at) / Fold change /veh MBOAT4 (11741988_at) / RFU 11764193_at / Fold change /veh 11764193_at / RFU TMEM53 (11763286_at) / Fold change /veh TMEM53 (11763286_at) / RFU MAGEB2 (11727129_at) / Fold change /veh MAGEB2 (11727129_at) / RFU TMEM200A (11744735_a_at) / Fold change /veh TMEM200A (11744735_a_at) / RFU CCDC152 (11751479_a_at) / Fold change /veh CCDC152 (11751479_a_at) / RFU FAM211A (11726209_a_at) / Fold change /veh FAM211A (11726209_a_at) / RFU RGS16 (11746705_a_at) / Fold change /veh RGS16 (11746705_a_at) / RFU VCAN (11755009_s_at) / Fold change /veh VCAN (11755009_s_at) / RFU RHOB (11743442_s_at) / Fold change /veh RHOB (11743442_s_at) / RFU RGS16 (11720943_a_at) / Fold change /veh RGS16 (11720943_a_at) / RFU RGS16 (11720944_at) / Fold change /veh RGS16 (11720944_at) / RFU, VPS4B / Fold change vs veh, VPS4B / RFU, CREB1 / Fold change vs veh, CREB1 / RFU, DNAJC13 / Fold change vs veh, DNAJC13 / RFU, GNAQ / Fold change vs veh, GNAQ / RFU, CDK5R1 / Fold change vs veh, CDK5R1 / RFU, ZRANB3 / Fold change vs veh, ZRANB3 / RFU, CUL4A / Fold change vs veh, CUL4A / RFU, CCNY / Fold change vs veh, CCNY / RFU, UFL1 / Fold change vs veh, UFL1 / RFU, COG3 / Fold change vs veh, COG3 / RFU, DIAPH2 / Fold change vs veh, DIAPH2 / RFU, SKA2 / Fold change vs veh, SKA2 / RFU, AFF3 / Fold change vs veh, AFF3 / RFU, LMF1 / Fold change vs veh, LMF1 / RFU, IPO11 / Fold change vs veh, IPO11 / RFU, DFFB / Fold change vs veh, DFFB / RFU, FOXP1 / Fold change vs veh, FOXP1 / RFU, CARD8 / Fold change vs veh, CARD8 / RFU, STRN3 / Fold change vs veh, STRN3 / RFU, ADK / Fold change vs veh, ADK / RFU, RASSF2 / Fold change vs veh, RASSF2 / RFU, WIPF1 / Fold change vs veh, WIPF1 / RFU, LARP1B / Fold change vs veh, LARP1B / RFU, RASA1 / Fold change vs veh, RASA1 / RFU, RB1 / Fold change vs veh, RB1 / RFU, PPFIA1 / Fold change vs veh, PPFIA1 / RFU, MAT2A / Fold change vs veh, MAT2A / RFU, CCT5 / Fold change vs veh, CCT5 / RFU, WDR92 / Fold change vs veh, WDR92 / RFU, CUX1 / Fold change vs veh, CUX1 / RFU, TTC7A / Fold change vs veh, TTC7A / RFU, TMEM135 / Fold change vs veh, TMEM135 / RFU, DEPTOR / Fold change vs veh, DEPTOR / RFU, CPM / Fold change vs veh, CPM / RFU, DNAJB6 / Fold change vs veh, DNAJB6 / RFU, CACNA2D3 / Fold change vs veh, CACNA2D3 / RFU, DTX4 / Fold change vs veh, DTX4 / RFU, TFCP2 / Fold change vs veh, TFCP2 / RFU, GMCL1 /// GMCL1P1 / Fold change vs veh, GMCL1 /// GMCL1P1 / RFU, AEBP2 / Fold change vs veh, AEBP2 / RFU, SNHG1 /// SNORD22 /// SNORD25 /// SNORD26 /// SNORD27 /// SNORD28 /// SNORD29 /// SNORD31 / Fold change vs veh, SNHG1 /// SNORD22 /// SNORD25 /// SNORD26 /// SNORD27 /// SNORD28 /// SNORD29 /// SNORD31 / Fold change (Aza/veh), C12orf56 (ProbeSet 11735607_a_at) / Fold change (ACY-1035/veh), C12orf56 (ProbeSet 11735607_a_at) / Fold change (Aza/veh), FGFR1OP (ProbeSet 11751329_s_at) / Fold change (ACY-1035/veh), FGFR1OP (ProbeSet 11751329_s_at) / Fold change (Aza/veh), VPS36 (ProbeSet 11739960_a_at) / Fold change (ACY-1035/veh), VPS36 (ProbeSet 11739960_a_at) / RFU SYPL1 (11715823_x_at) / Fold change /veh SYPL1 (11715823_x_at) / RFU IGFBP7 (11715501_s_at) / Fold change /veh IGFBP7 (11715501_s_at) / RFU REEP3 (11722064_at) / Fold change /veh REEP3 (11722064_at) / RFU IGLL1 (11728026_x_at) / Fold change /veh IGLL1 (11728026_x_at): dose or concentration left out as unconfirmed
Conditions: ProbeSet 11716331_a_at; LIST D

Compound: Nc1ncn([C@@H]2O[C@H](CO)[C@@H](O)[C@H]2O)c(=O)n1 [azacitidine]
- RFU, DNAJB6: 212.79 RFU
